Data: US7790172B2, “Methods for reducing nasopharyngeal colonization of non-typable Haemophilus influenzae with synthetic chimeric fimbrin peptides” (priority 1995, dated 2010)
Values after ≈ are worked out from the molar mass of the structure shown. Peptide text beside a SMILES is read from it.

B1: fimbrin: isolated fimbrin protein preparation from NTHi strain #1128, used as comparison immunogen (protein)
chain: APQENTFYAGVKAGQGSFHDGINNNGAIKKGLSSSNYGYRRNTFTYGVFGGYQILNQDNFGLAAELGYDDFGRAKLREAGKPKAKHTNHGAYLSLKGSYEVLDGLDVYGKAGVALVRSDYKFYEDANGTRDHKKGRHTARASGLFAVGAEYAVLPELAVRLEYQWLTRVGKYRPQDKPNTAINYNPWIGCINAGISYRFGQGEAPVVAAPEMVSKTFSLNSDVTFAFGKANLKPQAQATLDSVYGEISQVKSRKVAVAGYTNRIGSDAFNVKLSQERADSVANYFVAKGVAADAISATGYGEANPVTGATCDQVKGRKALIACLAPDRRVEIAVNGTK

Columns and labels:
[1] = test system: fimbrin from NTHi #1128 and NTHi #86-028NP; test: Western immunoblot of chinchilla antisera; assay type: binding, non-typable Haemophilus influenzae; conditions: for Western immunoblot recognition by antisera of homologous fimbrin / peptides: NTHi #1128 OMP preparation, isolated fimbrin, LB1, LB2; for Western immunoblot recognition by antisera of heterologous fimbrin: NTHi #86-028NP
From the text: FIG. 2A is a western immunoblot of chinchilla anti-LB1 antisera. Lane a contains a mixture of sera and NTHi #1128 enriched OMP preparation. Lane b contains a mixture of sera and isolated fimbrin from NTHi #1128. Lane c contains a mixture of sera and LB1. Lane d contains a mixture of sera and LB2. Lane e contains a mixture of sera and NTHi #86-028NP enriched OMP preparation. Lane f contains a mixture of sera and isolated fimbrin from NTHi #86-028NP. The lane marked “Std” contains pre-stained molecular mass markers; mass in kDa is given along left side of immunoblot.
FIG. 2B is a western immunoblot of chinchilla anti-LB2 antisera. Lane a contains a mixture of sera and NTHi #1128 enriched OMP preparation. Lane b contains a mixture of sera and isolated fimbrin from NTHi #1128. Lane c contains a mixture of sera and LB1. Lane D contains a mixture of sera and LB2. Lane e contains a mixture of sera and NTHi #86-028NP enriched OMP preparation. Lane f contains a mixture of sera and isolated fimbrin from NTHi #86-028NP. The lane marked “Std” contains pre-stained molecular mass markers; mass in kDa is given along left side of immunoblot.
FIG. 2C is a western immunoblot of chinchilla anti-fimbrial protein antisera. Lane a contains a mixture of sera and NTHi #1128 enriched OMP preparation. Lane b contains a mixture of sera and isolated fimbrin from NTHi #1128. Lane c contains a mixture of sera and LB1. Lane d contains a mixture of sera and LB2. Lane e contains a mixture of sera and NTHi #86-028NP enriched OMP preparation. Lane f contains a mixture of sera and isolated fimbrin from NTHi #86-028NP. The lane marked “Std” contains pre-stained molecular mass markers; mass in kDa is given along left side of immunoblot.
(§1) The chinchillas received a second dose of 50 μg of either the LB1 or LB2 in incomplete Freund's adjuvant 30 days later. Sera was obtained 2 weeks after the second dose.

[2] = target: T1, NTHi #1128 isolated fimbrin protein (25 and 37 kDa species) (Haemophilus influenzae, UniProt P45996); assay type: binding, non-typable Haemophilus influenzae; conditions: rabbit antisera; fimbrin isolated from NTHi strain #1128
T1 construct: isolated, reassembled, homologous fimbrial protein from NTHi; endogenous in cells; host or cells: NTHi strain #1128 (protein isolated from the bacterial outer membrane)
T1 sequence (P45996 22-359): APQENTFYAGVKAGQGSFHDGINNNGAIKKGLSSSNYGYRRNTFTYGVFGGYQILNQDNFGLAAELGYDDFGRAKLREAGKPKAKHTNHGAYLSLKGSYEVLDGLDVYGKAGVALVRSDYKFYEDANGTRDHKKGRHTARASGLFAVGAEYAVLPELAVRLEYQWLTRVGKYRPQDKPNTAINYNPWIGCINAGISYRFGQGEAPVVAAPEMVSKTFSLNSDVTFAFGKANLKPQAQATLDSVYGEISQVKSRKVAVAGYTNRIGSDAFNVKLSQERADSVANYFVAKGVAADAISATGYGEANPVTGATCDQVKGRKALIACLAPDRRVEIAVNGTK
Experimental: Two rabbits were immunized with the LB1 synthetic chimeric fimbrin peptide and two rabbits were immunized with the LB2 synthetic chimeric fimbrin peptide. Rabbits received an initial immunizing dose of 500 μg of either the LB1 or LB2 in complete Freund's adjuvant. The rabbits received a second dose of 400 μg of the synthetic chimeric fimbrin peptide 21 days later. The rabbits received a third dose of synthetic chimeric fimbrin peptide in complete Freund's adjuvant 42 days later with 400 μg of the same peptide in either incomplete Freud's adjuvant (IFA) or phosphate buffered saline (PBS) (one rabbit per diluent). Sera was obtained 3 weeks after each dose. The sera from each animal was assessed for titer and specificity against LB1, LB2 and fimbrial protein, by both ELISA and Western blot.

NTHi strain 1128 = test: Nasopharyngeal colonization by NTHi in immunized chinchillas (nasopharyngeal lavage); assay type: in vivo, chinchilla
Experimental: Nasopharyngeal colonization by NTHi was/were examined in two separate trials, study A and study B.
In study A, five cohorts of four chinchillas each were actively immunized with one of the following preparations: in complete Freund's adjuvant or a saline control preparation; 100 μg of the synthetic chimeric fimbrin peptide LB1, 100 μg of a total outer membrane protein preparation from strain #1128; 100 μg of the synthetic chimeric fimbrin peptide LB2; 10 μg isolated fimbrin protein preparation from strain #1128. The total outer membrane preparation and fimbrin were assessed for endotoxin content prior to their use as an immunogen via a chromogenic Amoebocyte Lysate assay which is commercially available from Whittaker Bioproducts under the designation QCL-1000. The preparations were subcutaneously injected into the chinchillas.
Then 30 days later the animals received a booster of one-half of the initial dosage of the same immunogen but in incomplete Freund's adjuvant. Ten days later they received 6×10^6 TCID50 adenovirus intranasally. Thereafter, these five cohorts were divided into two groups each and challenged intranasally, about 5×10^7cfu of NTHi strain 1128. The chinchillas were subject to nasopharyngeal lavage over a 21 day period, and the lavage fluid was examined and quantified for NTHi. The NTHi concentration was determined by plating on selective media. The NTHi lavage fluid concentration was plotted over time.
Again, the NTHi lavage fluid concentration was plotted over time.

NTHi strain #1128 = test: Inhibition of adherence of NTHi to active ciliated chinchilla tracheal mucosal epithelium; assay type: cell-based, non-typable Haemophilus influenzae; conditions: dose dependence, 50 and 100 μg/ml
Experimental: LB1 and LB2 were each added to the lumen of excised 15 chinchilla tracheas and incubated for about 1 hour. Next 10^8cFu NTHi/ml were added to the cultures and incubated for about 1 hour. The tracheas were rinsed, homogenized, diluted and plated onto chocolate agar. The NTHi colonies were then counted.

Solubility in water = assay type: physicochemical
[3] = test system: antibodies in sera directed to NTHi; test: Anti-serum ELISA using synthetic chimeric fimbrin peptides as coating antigen; assay type: binding; conditions: peptide as ELISA antigen, chinchilla sera
Experimental: An anti-serum Elisa was performed by first coating an immulon 1, flat bottom plate containing 96 wells with varied concentrations of LB1 and LB2 according to the dilute checkerboard assay method. The LB1 and LB2 were diluted first in carbonate-bicarbonate buffer at pH 9.6. This coating buffer contained 1.59 g/L NaCO3, 2.93 g/L NaHCO3 at a pH of 9.6. 50 μl of the LB1 or LB2 were added for each well and incubated at 4° C. overnight. After the overnight incubation, the liquid was emptied from the plates and 100 μl per well of 10 mM PBS at pH 7.4 with 0.5% BSA was added, and incubated at 37° C. for 1 hour. Next, the liquid was emptied from the plate and washed three times with 10 mM PBS at pH 7.4 with 0.05% Tween 20 (PBT) at a volume of 250 μl per well. Then the plate was emptied by pounding three times onto paper towels. Next, 50 μl per well of the sera to be assayed was diluted in 10 mM PBS at a pH of 7.4 and added to the plate and incubated at 37° C. for one hour. The liquid was then emptied from the plates and washed three times with 10 mM PBS at pH 7.4 containing 0.05% Tween 20 (PBT) at a volume of 250 μl per well and the plates were pounded three times onto paper towels. Next, 500 μl per well of secondary antibody diluted 1 to 1000 times in PBT was added. Where the sera to be assayed was rabbit, the secondary antibody was HRP chimeric goat anti-rabbit antibody. Where the sera to be assayed was chinchilla sera, then the secondary antibody was HRP protein A. The secondary antibody was incubated at 37° C. for one hour. Next, the liquid was emptied from the plates and washed three times with 10 mM PBS at pH 7.4 containing 0.05% Tween 20. Next, one tablet o-phenylenediamine was suspended in 12 ml citrate phosphate buffer at pH 5.0. The citrate phosphate buffer contained 0.1 M citric acid, 1.0 M Na2HPO4 at pH 5.0. Next 12 μl 30% H2O2 was added to the o-phenylenediamine solution and 100 μl of this mixture was added to each well. The solution was incubated at room temperature in the dark and after 10 minutes, the absorbencies were read at 400 nm. The reaction was stopped at 16 minutes with 100μ per well of 2NH2SO4 and the plates were then read at 490 nm.

[4] = target: T2, NTHi #1128 fimbrial protein (Haemophilus influenzae, UniProt P45996); assay type: in vivo, non-typable Haemophilus influenzae; conditions: chinchilla sera 2 weeks after second dose; ELISA
T2 construct: isolated, reassembled, homologous fimbrial protein from NTHi; endogenous in cells; host or cells: NTHi strain #1128 (protein isolated from the bacterial outer membrane)
T2 sequence (P45996 22-359): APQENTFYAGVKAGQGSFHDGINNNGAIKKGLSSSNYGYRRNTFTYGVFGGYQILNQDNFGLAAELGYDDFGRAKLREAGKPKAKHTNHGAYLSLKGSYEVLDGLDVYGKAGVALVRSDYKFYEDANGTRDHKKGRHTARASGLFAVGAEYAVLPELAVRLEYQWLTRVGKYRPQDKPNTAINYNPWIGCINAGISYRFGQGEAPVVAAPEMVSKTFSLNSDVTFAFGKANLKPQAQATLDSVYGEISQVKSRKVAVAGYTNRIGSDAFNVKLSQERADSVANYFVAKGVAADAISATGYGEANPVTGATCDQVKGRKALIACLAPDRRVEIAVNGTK
Experimental: as §1

[5] = test system: native fimbriae of whole, unfixed NTHi strain #1128; test: Indirect immunogold labeling of unfixed NTHi with chinchilla antiserum (transmission electron micrograph); assay type: binding, non-typable Haemophilus influenzae
From the text: FIG. 3 is a transmission electron micrograph of two unfixed NTHi strain #1128 cells, shown at bottom of the Figure, which were indirectly immuno-labeled with chinchilla anti-LB1IFA serum and 10 nm gold-chimeric Protein A.
Two unfixed NTHi strain #1128 cells were indirectly immunolabeled with chinchilla anti-LB1IFA serum and 10 nm gold-chimeric Protein A. The preparation was subjected to stable, low-angle shadow casting with platinum and palladium to impart a sense of height to low-profile fimbriae.

[6] = study A, chinchillas immunized with 100 μg peptide plus booster, intranasal challenge about 5×10^7 cfu NTHi strain 1128, FIG. 4
[7] = study B, higher intranasal challenge dose 1.5×10^8 cfu/animal NTHi #1128, FIG. 5

Row | Molecule | Western immunoblot recognition by antisera of homologous fimbrin / peptides [1] | Western blot reactivity of antisera with fimbrin [2] | NTHi in nasopharyngeal lavage fluid by Day 21 (NTHi strain 1128; [6]) | NTHi in nasopharyngeal lavage fluid by Day 21 (NTHi strain 1128; [7]) | Effect on inhibition of adherence of NTHi strain #1128 to ciliated chinchilla tracheal epithelium (NTHi strain #1128) | solubility (Solubility in water) [µg/mL] | Reciprocal Titer ([3]; post infection) | Reciprocal Titer ([3]; pre infection) | Reciprocal Titer of Sera against: NTHi #1128 fimbrial protein [4] | Western immunoblot recognition by antisera of heterologous fimbrin [1] | Recognition of native fimbriae by antiserum (immunogold labeling) [5]
1 | CC[C@H](C)[C@H](NC(=O)[C@H](CC(C)C)NC(=O)[C@H](CO)NC(=O)[C@H](CC(C)C)NC(=O)[C@H](CC(C)C)NC(=O)[C@H](CCCCN)NC(=O)[C@H](CC(C)C)NC(=O)[C@H](CO)NC(=O)[C@@H]1CCCN1C(=O)CNC(=O)[C@H](CCCCN)NC(=O)[C@H](CCCCN)NC(=O)[C@H](Cc1c[nH]cn1)NC(=O)[C@H](CC(=O)O)NC(=O)[C@H](CCCNC(=N)N)NC(=O)[C@@H](NC(=O)CNC(=O)[C@H](CC(N)=O)NC(=O)[C@H](C)NC(=O)[C@H](CC(=O)O)NC(=O)[C@H](CCC(=O)O)NC(=O)[C@H](Cc1ccc(O)cc1)NC(=O)[C@H](Cc1ccccc1)NC(=O)[C@H](CCCCN)NC(=O)[C@H](Cc1ccc(O)cc1)NC(=O)[C@H](CC(=O)O)NC(=O)[C@H](CO)NC(=O)[C@@H](N)CCCNC(=N)N)[C@@H](C)O)C(=O)N[C@@H](CCCCN)C(=O)NCC(=O)N[C@H](C(=O)N[C@H](C(=O)N[C@H](C(=O)N[C@@H](Cc1c[nH]cn1)C(=O)N[C@@H](CCCNC(=N)N)C(=O)N[C@@H](CC(C)C)C(=O)N[C@@H](CCC(=O)O)C(=O)NCC(=O)N[C@H](C(=O)N[C@@H](CCC(=O)O)C(=O)O)C(C)C)C(C)C)[C@@H](C)CC)C(C)C [LB1] (H-RSDYKFYEDANGTRDHKKGPSLKLLSLIKGVIVHRLEGVE-OH) | only recognized the LB1 | sera reactivity to fimbrin (both molecular weight species) occurred only after immunization | 0 | 0 | dose-dependent effect on inhibition of adherence | ~10000 (≈ 2190 µM) | >500 | ≦100 | 15,000 |  | 
2 | CC[C@H](C)[C@H](NC(=O)[C@H](CC(C)C)NC(=O)[C@H](CO)NC(=O)[C@H](CC(C)C)NC(=O)[C@H](CC(C)C)NC(=O)[C@H](CCCCN)NC(=O)[C@H](CC(C)C)NC(=O)[C@H](CO)NC(=O)[C@@H]1CCCN1C(=O)CNC(=O)[C@@H](NC(=O)[C@H](CC(N)=O)NC(=O)[C@@H]1CCCN1C(=O)[C@H](CCCCN)NC(=O)[C@H](CC(=O)O)NC(=O)[C@H](CCC(N)=O)NC(=O)[C@@H]1CCCN1C(=O)[C@H](CCCNC(=N)N)NC(=O)[C@H](Cc1ccc(O)cc1)NC(=O)[C@H](CCCCN)NC(=O)CNC(=O)[C@@H](NC(=O)[C@H](CCCNC(=N)N)NC(=O)[C@@H](NC(=O)[C@H](CC(C)C)NC(=O)[C@H](Cc1c[nH]c2ccccc12)NC(=O)[C@H](CCC(N)=O)NC(=O)[C@@H](N)Cc1ccc(O)cc1)[C@@H](C)O)C(C)C)[C@@H](C)O)C(=O)N[C@@H](CCCCN)C(=O)NCC(=O)N[C@H](C(=O)N[C@H](C(=O)N[C@H](C(=O)N[C@@H](Cc1c[nH]cn1)C(=O)N[C@@H](CCCNC(=N)N)C(=O)N[C@@H](CC(C)C)C(=O)N[C@@H](CCC(=O)O)C(=O)NCC(=O)N[C@H](C(=O)N[C@@H](CCC(=O)O)C(=O)O)C(C)C)C(C)C)[C@@H](C)CC)C(C)C [LB2] (H-YQWLTRVGKYRPQDKPNTGPSLKLLSLIKGVIVHRLEGVE-OH) | recognized homologous fimbrin |  | 0 | performed less well |  | ~10000 (≈ 2180 µM) | 500 | ≦100 | 10,000 | recognized heterologous fimbrin contained in the outer membrane preparation | Equivalent results
3 | B1 | recognizes itself |  |  |  |  |  |  |  |  | recognizes a heteroloous fimbrin | 
